The target in one test is T1, PARP14 (Homo sapiens, UniProt Q460N5).
T1 sequence (Q460N5 1611-1801): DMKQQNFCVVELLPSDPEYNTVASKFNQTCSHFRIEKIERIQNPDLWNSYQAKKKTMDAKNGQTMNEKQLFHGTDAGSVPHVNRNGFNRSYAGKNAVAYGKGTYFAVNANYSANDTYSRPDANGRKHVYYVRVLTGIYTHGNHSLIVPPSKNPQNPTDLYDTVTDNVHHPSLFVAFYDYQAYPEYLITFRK
The test can be described thus: NanoBRET probe displacement assay (Probe A) in live 293T cells, PARP14. Type of test: cell-based. Particulars: NanoBRET displacement of Probe A, NanoLuc-tagged PARP14 in live 293T cells. The protocol: MonoPARP genes from Table 5 were cloned into the pcDNA3.1-mammalian expression vector as a NanoLuc fusion with NanoLuc on the N- or C-terminus as indicated. The sequence of the NanoLuc tag is as follows: [table] Displacement of a fluorescently-labeled compound Probe A binding to NanoLuc-tagged monoPARP enzymes was measured in live cells using a bioluminescence resonance energy transfer (NanoBRET) assay. TIPARP, PARP10, PARP12 or PARP14 fused to a NanoLuc tag were overexpressed in 293T cells (ATCC) using the plasmids described herein. Plasmid DNA and empty vector DNA were added to phenol red free OptiMEM (Thermo Fisher) as shown in Table 6 in a total volume of 2.456 mL. 157 μL of Fugene HD (Promega) was added to the DNA mixture and allowed to incubate 5 min at 25° C. [table] Next, 2.375 mL of the plasmid-Fugene mixture were added to 20 million 293T cells in DMEM (Thermo Fisher) supplemented with 10% FBS (VWR). The transfection was incubated for 24 h at 37° C. in an incubator containing air supplemented with 5% CO2. The cells were resuspended in phenol red free OptiMEM media. 40 μL of cells were then added to white polystyrene 384-well non-binding surface microplate (Corning). […] Filtered luminescence was measured on an Envision (Perkin Elmer) equipped with a dual 585 nm mirror, 460±40 nm bandpass filter (donor) and 610±50 nm longpass filter (acceptor). […]
On the technique in general: In BRET a luciferase serves as donor, and the signal depends on an acceptor being close.

Another test has as its target T2, PARP10 (Homo sapiens, UniProt Q53GL7).
T2 sequence (Q53GL7 808-1025): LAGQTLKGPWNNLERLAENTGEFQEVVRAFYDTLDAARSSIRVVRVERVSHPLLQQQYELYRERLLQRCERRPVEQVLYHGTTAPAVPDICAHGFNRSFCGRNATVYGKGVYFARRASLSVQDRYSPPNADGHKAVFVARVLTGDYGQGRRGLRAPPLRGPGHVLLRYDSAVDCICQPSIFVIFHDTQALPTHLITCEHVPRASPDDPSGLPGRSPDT
The test can be described thus: In vitro TR-FRET probe displacement assay (Probe C), PARP10. The format is binding. Set-up: made in house; host or cells: E. coli. Particulars: TR-FRET displacement of Probe C, PARP10 residues 808-1025. How it is done:
A portion of PARP10 (residues 808 to 1025 of NP_116178.2 (SEQ ID NO: 2), GenBank Accession No. NM_032789.4) was overexpressed in E. coli cells. An N-terminal fusion tag, MAHHHHHHENLYFQSM (SEQ ID NO: 8), was used to purify the protein from cell lysates. The fusion tag was left on the protein for use in the probe displacement assay.
Displacement of a Probe C binding to monoPARP active sites was measured using a time-resolved fluorescence resonance energy transfer (TR-FRET) assay. 20 nL of a dose response curve of each test compound was spotted in black 384-well polystyrene proxiplates (Perkin Elmer) using a Mosquito (TTP Labtech). Reactions were performed in an 8 μL volume by adding 6 μL of the monoPARP and Probe C in assay buffer (20 mM HEPES pH=8, 100 mM NaCl, 0.1% bovine serum albumin, 2 mM DTT and 0.002% Tween20), incubating with test compound at 25° C. for 30 min, then adding 2 μL of ULight-anti 6×His and LANCE Eu-W 1024 labeled streptavidin (Perkin Elmer). Binding reactions were equilibrated at 25° C. for an additional 30 min, then read on an Envision platereader equipped with a LANCE/DELFIA top mirror (Perkin Elmer) using excitation of 320 nm and emission of 615 nm and […] with a 90 μs delay. The ratio of the 665/615 nm emission were calculated for each well to determine the amount of complex of monoPARP and Probe C in each well. […]

For orientation: IC50 means the concentration that gives 50% inhibition. Read a high IC50 as lower potency. Turning to `O=c1[nH]ncc(N2Cc3ccc(OC4CCNCC4)cc3C2)c1C(F)(F)F` [Compound A, 5-[5-(Piperidin-4-yloxy)-2,3-dihydro-1H-isoindol-2-yl]-4-(trifluoromethyl)-2,3-dihydropyridazin-3-one], the values for the IC50 on PARP14 and on PARP10 were 30 nM and 80 nM, respectively.

The record behind these values is patent US11293927B2, “Screening methods for PARP modulators” (Ribon Therapeutics, Inc., priority 2018, dated 2022).
